Reference: patent US20020082448A1, “Aminoguanidine carboxylates for the treatment of non-insulin-dependent diabetes mellitus” (The Upjohn Company, priority 1999, published 2002)
Like-named read-outs stand apart in the source and are kept apart here. Values belong to the compound of their own block, whether it stands above or below them.

What was measured:
[1] = test system: KKAy mice; experiment: Intraperitoneal glucose tolerance in diabetic KKAy mice; assay type: in vivo, mouse; details: for Blood Glucose: KKAy mice, 100 mg/kg oral gavage
[2] = test system: KKAy mice; experiment: Reduction of non-fasting blood glucose in KKAy mice, compound admixed in chow; assay type: in vivo, mouse; details: for % Change Blood Glucose: Day 3 vs Day-1
Source text: (§1) KKAy mice are rodent models of NIDDM and obesity (Chang, Wyse, Copeland, Peterson, and Ledbetter, 1986). A pre-treatment blood sample was obtained from the retro-orbital sinus and the mice arranged in groups of 6 so that the mean pre-treatment blood glucose level was the same on average in all groups. […] Control mice received unsupplemented chow. On Day 0, the mice were weighed and provided control chow or chow supplemented with test compounds. After 3 days of consuming control chow or chow supplemented with test compounds, a blood sample was obtained for determination of the glucose concentration and the animals were weighed for determination of weight loss. Food consumption was measured by weighing the food provided at the beginning of the study and the food residue at the end of the study. Food consumption was calculated by subtracting the weight of the residue from the weight of the food provided. […] Blood glucose data are expressed as the average blood glucose concentration in the test group divided by the average blood glucose level in the control group (treatment/control or T/C). Compounds resulting in T/C values equal to or less than 0.90 are considered to be active anti-hyperglycemic agents. Weigh loss data are expressed as percent change in body weight. Compounds resulting in a decrease of 1% or more less than control in body weight over three days are considered to be active anti-obesity agents.

[3] = biological target: human serum albumin (Homo sapiens, UniProt P02768); experiment: Non-enzymatic glycosylation of human serum albumin, [14C]-glucose incorporation; assay type: biochemical; details: for non-enzymatic glycosylation of human serum albumin in vitro: Table 8 assay; for % [14C-glucose] Incorporated: test compound 19.1 mM, 100 mM [14C]-D-glucose, human serum albumin, 37° C., 8 days, control 1.50
Chain of human serum albumin (P02768 25-609): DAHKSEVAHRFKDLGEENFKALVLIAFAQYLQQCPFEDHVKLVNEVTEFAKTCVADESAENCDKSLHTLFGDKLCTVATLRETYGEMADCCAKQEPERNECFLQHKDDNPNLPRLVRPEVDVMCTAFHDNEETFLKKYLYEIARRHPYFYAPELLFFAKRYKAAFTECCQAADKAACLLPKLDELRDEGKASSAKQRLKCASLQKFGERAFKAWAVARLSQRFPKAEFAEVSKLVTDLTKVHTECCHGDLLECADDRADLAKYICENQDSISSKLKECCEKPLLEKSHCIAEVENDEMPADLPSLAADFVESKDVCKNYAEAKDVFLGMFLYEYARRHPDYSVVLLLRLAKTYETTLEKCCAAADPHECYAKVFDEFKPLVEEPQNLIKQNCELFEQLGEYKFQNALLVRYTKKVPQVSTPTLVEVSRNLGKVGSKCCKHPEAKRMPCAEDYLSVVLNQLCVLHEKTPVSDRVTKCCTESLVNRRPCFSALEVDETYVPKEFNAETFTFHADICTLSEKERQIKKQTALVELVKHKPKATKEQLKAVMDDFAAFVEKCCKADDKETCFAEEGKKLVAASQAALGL

[4] = Body weight change in KKAy mice, compound admixed in chow; assay type: in vivo, mouse; details: for % Change Body Weight: Day 3 vs Day-1
Source text: as §1, with “provided. Drug intake was calculated by multiplying food consumption by 0.5%.” for “provided.”

[5] = test system: C57BL mice; experiment: Intraperitoneal glucose tolerance in non-diabetic C57BL mice; assay type: in vivo, mouse; details: for Blood Glucose: C57BL mice, 100 mg/kg oral gavage
[6] = test system: advanced glycosylation endproducts; details: in vivo; cited from earlier work
[7] = cited from earlier work
[8] = test system: rats; details: cited from earlier work; for effect on hyperglycemia: chronic oral
[9] = test system: proteins; details: in vitro; cited from earlier work
[10] = test system: rats; details: cited from earlier work
[11] = test system: erythrocyte plasma membranes; details: incubated with glucose in vitro, cited from earlier work
[12] = cited from earlier work; remark: listed apart in the source
[13] = test system: mice; details: cited from earlier work; for effect on hyperglycemia / effect on blood glucose concentration: chronic oral; for effect on blood glucose concentration: 250 mg/kg/day
[14] = cited from earlier work; remark: listed apart in the source
[15] = test system: mice; details: cited from earlier work
[16] = 30 min after 2 g/kg glucose I.P.
[17] = 60 min after 2 g/kg glucose I.P.
[18] = 90 min after 2 g/kg glucose I.P.
[19] = fasted 16-17 h, Time 0 (before 2 g/kg glucose I.P.)
[20] = 0.03% in chow (approx. 30 mg/kg/day)
[21] = 0.06% in chow (approx. 60 mg/kg/day)
[22] = 0.10% in chow (approx. 100 mg/kg/day)
[23] = 0.2% in chow (approx. 200 mg/kg/day)
[24] = 0.3% in chow (approx. 300 mg/kg/day)
[25] = 0.4% in chow (approx. 400 mg/kg/day)
[26] = normal or alloxan-diabetic rats
[27] = 0.5% in chow (approx. 500 mg/kg/day)

Compound: N/N=C(\N)NN [Diaminoguanidine]
- formation of advanced glycosylation endproducts [6]: inhibit
- effect on body weight [7, 26]: does not affect
- effect on blood glucose level [8, 26]: no effect
- non-enzymatic glycosylation of proteins [9]: inhibit

Compound: CN(C)C(=N)N=C(N)N [Metformin]
- glucose tolerance ([10]; normal rats, 750 mg/kg): not affect glucose tolerance
- oral glucose tolerance ([10]; streptozotocin-diabetic rats, 250 mg/kg): oral glucose tolerance was increased
- effect on hyperglycemia ([8]; Zucker fa/fa rats, 350 mg/kg/day): reduces hyperglycemia
- effect on hyperglycemia ([8]; neonatal streptozotocin-diabetic rats, 100 mg/kg/day): reduces hyperglycemia
- effect on blood glucose level ([8]; rats, acute administration, 264 mg/kg): did not affect
- non-enzymatic glycosylation of erythrocyte plasma membranes ([11]; 0.5 and 5 micromoles per liter): inhibit non-enzymatic glycosylation
- non-enzymatic glycosylation of erythrocyte plasma membranes ([11]; 50 and 100 micromoles per liter): reverse effect
- effect on body weight ([12]; KKAy mice, 1700 mg/kg/day, not at lower doses): statistically significant weight loss
- effect on body weight ([12]; diabetic ob/ob mice, 240 mg/kg/day): did not cause weight loss
- effect on body weight ([12]; streptozotocin-diabetic mice, 60 mg/kg/day): did not cause weight loss
- effect on hyperglycemia ([13]; DBM mice, 400 mg/kg/day): reduces hyperglycemia
- dose required to reduce the blood glucose level by 25% ([13]; KKAy mice (Meglasson et al.)): 300 mg/kg/day
- effect on hyperglycemia ([13]; KKAy mice, 300 mg/kg/day or more): reduces hyperglycemia
- effect on blood glucose concentration ([13]; diabetic ob/ob mice): did not affect
- effect on blood glucose concentration ([13]; normal mice): did not affect
- effect on blood glucose concentration ([13]; streptozotocin-diabetic mice): did not affect
- effect on body weight ([14]; non-insulin dependent diabetic patients treated for one year (Bailey)): cause weight loss
- effect on body weight ([14]; obese non-insulin dependent diabetic patients, similar length of time (Multi-centre Study)): no significant effect
- glucose tolerance ([15]; normal mice, 50 mg/kg): not affect glucose tolerance
- oral glucose tolerance ([15]; normal mice, 250 mg/kg): oral glucose tolerance was increased

Compound: CCCCNC(=N)NC(=N)N [buformin]
- effect on blood glucose level ([8]; rats, acute administration, 132 mg/kg): did not affect

Continued, in another order:

- non-enzymatic glycosylation of human serum albumin in vitro [3]: reduced
- % [14C-glucose] Incorporated [3]: 0.81 (P < 0.05 vs. Control) %
Compound: NNC(=NCC(=O)O)NN [N-(dihydrazinomethylene)-glycine]
- Blood Glucose [1, 16]: 383 ± 38 mg/dL
- Blood Glucose [1, 17]: 396 ± 63 mg/dL
- Blood Glucose [1, 18]: 392 ± 67 mg/dL
- Blood Glucose [1, 19]: 115 ± 16 mg/dL
- glucose tolerance ([1]; diabetic KKAy mice, 100 mg/kg): improved glucose tolerance
- dose for a similar (25%) reduction in the blood glucose level [2]: 30 to 60 mg/kg/day
- dose required to reduce the blood glucose level by 20% [2]: 30 mg/kg/day
- % Change Blood Glucose [2, 20]: −13.5 ± 10.5%
- % Change Blood Glucose [2, 21]: −34.9 ± 17.1 %
- decrease in the blood glucose level ([2]; 60 mg/kg/day, 4 days): 35%
- % Change Blood Glucose [2, 22]: −45.2 ± 6.4 %
- % Change Blood Glucose [2, 23]: −69.9 ± 3.2 ¶ %
- % Change Blood Glucose [2, 24]: −70.4 ± 1.5 ¶ %
- % Change Blood Glucose [2, 25]: −70.3 ± 3.9 ¶ %
- % Change Body Weight [4, 20]: −0.92 ± 0.35%
- % Change Body Weight [4, 21]: −1.51 ± 2.11%
- % Change Body Weight [4, 22]: −4.04 ± 0.76 %
- decrease in the body weight ([4]; 100 mg/kg/day, 4 days): 4%
- % Change Body Weight [4, 23]: −8.22 ± 1.05 %
- % Change Body Weight [4, 24]: −9.94 ± 1.62 ¶ %
- % Change Body Weight [4, 25]: −10.3 ± 0.97 ¶ %
- Blood Glucose [5, 16]: 174 ± 17 mg/dL
- Blood Glucose [5, 17]: 153 ± 7 mg/dL
- Blood Glucose [5, 18]: 161 ± 19 mg/dL
- Blood Glucose [5, 19]: 114 ± 9 mg/dL
- fasting blood glucose concentration ([5]; normal C57BL mice, 100 mg/kg): decreased
- glucose tolerance ([5]; normal C57BL mice, 100 mg/kg): improved glucose tolerance

- non-enzymatic glycosylation of human serum albumin in vitro [3]: effective
- % [14C-glucose] Incorporated [3]: 0.96 (P < 0.05 vs. Control) %
Compound: N=C(N)NN [Aminoguanidine]
- formation of advanced glycosylation endproducts [6]: inhibit
- effect on body weight ([7]; human and rats (Baylin et al.)): increase in body weight
- effect on body weight ([7]; normal or diabetic rats): no effect
- effect on blood glucose level ([8]; normal rodents or rats made diabetic by alloxan or streptozotocin): no effect
- non-enzymatic glycosylation of proteins [9]: inhibit

- non-enzymatic glycosylation of human serum albumin in vitro [3]: reduced
- % [14C-glucose] Incorporated [3]: 1.29 (P < 0.10 vs. Control) %
Compound: Cl.N=C(N)NNCC(=O)O [[2-(aminoiminomethyl)hydrazino]-, monohydrochloride acetic acid]

- non-enzymatic glycosylation of human serum albumin in vitro [3]: no effect
- % [14C-glucose] Incorporated [3]: 1.52%
Compound: N=C(N)NCCC(=O)O [3-Guanidinopropionic acid]
- dose required to reduce the blood glucose level by 20% [2]: 130 mg/kg/day
- % Change Blood Glucose [2, 27]: −38.4 ± 4.4 %
- % Change Body Weight [4, 27]: −5.4 ± 0.81 %
- glucose tolerance ([15]; diabetic KKAy mice, 1% admixture in chow, approximately 1000 mg/kg/day): improves glucose tolerance
